pIC50: −log10 of the molar value.
What was measured:
[1] = system: morphine analgesia-non-effective Wistar rats; test: Effect of enhancing morphine analgesia, tail-flick latency (Test 2); format: in vivo, rat; details: 250 mg/kg test compound i.p., 10 minutes later 0.5 mg/kg morphine i.p.; versus 0.5 mg/kg morphine alone; tail-flick latency
Description: Effect of enhancing morphine analgesia was tested.
To Wistar rats (10 week-age, male, body weight 250~300 g) was given intraperitoneally morphine at a dose of 0.5 mg/kg, and these rats receiving the morphine were classified into the group of morphine analgesia-effective rats and the group of morphine analgesia-non-effectiverats according to the classification method described in the "Showa Igakukai Zasshi" Vol. 39, No. 5, pages 537~542 (1979). […] The effect of analgesia was evaluated according to the method of tail-flick latency of rats described in the "Showa Igakukai Zasshi" Vol. 39, No. 5, pages 537~542 (1979). The evaluation of pain threshold of rats according to the tail-flick latency method was made as follows: Radiant heat stimulus was applied to the region of the rat tail which positioned 1 cm away from the tail tip and which had been colored black with a black-dye, and the time of latency involved in the tail flick, namely the period of time lapsing between the time of application of the heat stimulus and the time of the reflective flick response of the tail was measured. The quantity of the heat applied was so controlled that the average time of latency of the tail-flick response appearing in the control group of rats (receiving neither the test compound nor the morphine) was about 2.0 seconds. The tests were accomplished as long as the maximum value for the tail-flick latency was 7.0 seconds or less, as otherwise the skin of the rat tail could be damaged by the application of heat. In other words, if the time for the tail-flick latency was longer than 7.0 seconds, the tests were stopped to prevent the damage of the rat tail. The radiant heat stimulus was repeated 5 times for each test rat at an interval of 15 minutes and the times of latency in the flick response of the tail measured in each test were averaged. In each test, 5 rats were used.
The difference in the time of the tail-flick latency between the test rats (receiving 250 mg/kg of the test compound plus 0.5 mg/kg of morphine) and the control rats (receiving 0.5 mg/kg of morphine alone) was calculated, and the effect for enhancement of morphine analgesia was estimated in term of the value of percentages which were calculated by the following equation: [formula]

[2] = molecular target: T1, enkephalinase (Rattus norvegicus, UniProt P07861); test: Inhibitory activity against enkephalinase (Test 1); format: biochemical; details: enkephalinase from corpus striatum of rat brain; substrate methionine-enkephaline; 37° C., 1 hour; pH 7.7
T1 construct: homogenizing corpus striatum of rat brain and by partial purification of the brain homogenate; from tissue; host or cells: rat brain corpus striatum, homogenate partially purified by the method of Gorenstein et al
T1 sequence (P07861 1-750): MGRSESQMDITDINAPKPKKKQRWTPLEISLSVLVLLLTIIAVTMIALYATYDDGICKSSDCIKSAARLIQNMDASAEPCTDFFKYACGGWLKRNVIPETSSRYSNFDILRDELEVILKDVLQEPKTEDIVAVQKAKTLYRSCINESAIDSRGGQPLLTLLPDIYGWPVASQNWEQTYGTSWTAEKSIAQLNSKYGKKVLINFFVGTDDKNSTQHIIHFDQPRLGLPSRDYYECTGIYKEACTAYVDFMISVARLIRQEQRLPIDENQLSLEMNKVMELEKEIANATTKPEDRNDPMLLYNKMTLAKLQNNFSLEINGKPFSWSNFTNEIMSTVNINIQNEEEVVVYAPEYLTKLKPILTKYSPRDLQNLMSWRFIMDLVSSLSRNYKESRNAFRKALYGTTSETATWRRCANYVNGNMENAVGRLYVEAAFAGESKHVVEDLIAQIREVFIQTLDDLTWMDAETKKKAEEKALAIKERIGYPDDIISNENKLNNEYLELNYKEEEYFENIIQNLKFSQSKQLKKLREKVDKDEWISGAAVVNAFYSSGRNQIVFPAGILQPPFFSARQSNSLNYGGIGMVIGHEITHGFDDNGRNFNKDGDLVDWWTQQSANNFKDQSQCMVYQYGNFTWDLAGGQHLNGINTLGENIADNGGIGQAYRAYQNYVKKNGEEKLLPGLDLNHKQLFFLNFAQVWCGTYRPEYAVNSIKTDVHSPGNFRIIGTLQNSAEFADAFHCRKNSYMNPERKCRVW
Description: Inhibitory activity against enkephalinase were tested.
A preparation of enkephalinase was made by homogenizing corpus striatum of rat brain and by partial purification of the brain homogenate according to the method of Gorenstein et al (see the "Life Science" Vol. 25, 2065~2070 (1979) Pergamon Press, U.S.A.).
A test compound was dissolved in a mixture of Trishydrochloride buffered solution (pH 7.7) and an aqueous 1% Triton X100 (an active surfectant) to such a concentration that the added quantity of the test compound amounted to one-tenth of the volume of said mixture. To the solution of the test compound so prepared was added the enkephalinase, followed by incubation for five minutes at ambient temperature and further by addition of methionine-enkephaline as the substrate. The admixture so obtained was incubated at 37° C. for 1 hour and then subjected to a high-performance liquid chromatography in such a manner that the Tyr-Gly-GLy (a fragment of the methionine-enkephaline) formed by the enzymatic degradation of methionine-enkephaline was isolated in some fractions of the eluate and the quantity of Tyr-Gly-GLy was determined by an electro-chemically analysing detector. In this way, IC50 value of the test compound, namely the dose of the test compound required for 50% inhibition of the enkephalinase was measured.

| Compound | Morphine Analgesia enhancement [1] | pIC50 [2] |
| --- | --- | --- |
| CNCC(=O)N[C@H](Cc1ccccc1)[C@H](O)C(=O)O [Compound 7, (2S,3R)-3-N--(N'--methylglycyl)amino-2-hydroxy-4-phenylbutanoic acid] | 16.2% |  |
| NCC[C@H](O)C(=O)N[C@H](Cc1ccccc1)[C@H](O)C(=O)O [Compound 11, (2S,3R)-3-N--[4'-amino-(2'S)--2'-hydroxybutanoyl]amino-2-hydroxy-4-phenylbutanoic acid] | 21.6% | 2.89 |
| COC(=O)[C@@H](O)[C@@H](Cc1ccccc1)NC(=O)CN.Cl [Compound 2, (2S,3R)-3-N--glycylamino-2-hydroxy-4-phenylbutanoic acid methyl ester hydrochloride] | 11.6% | 3.52 |
| C[C@@H](NC=O)C(=O)N[C@H](Cc1ccccc1)[C@H](O)C(=O)[O-].[Na+] [Compound 15, (2S,3R)-3-N--(N'--formyl-(R)-alanyl)amino-2-hydroxy-4-phenylbutanoic acid sodium salt] | 19.7% | 3.82 |
| CC(=O)NCC(=O)NCC(=O)N[C@H](Cc1ccccc1)[C@H](O)C(=O)O [Compound 6, (2S,3R)-3-N--(N'--acetylglycylglycyl)amino-2-hydroxy-4-phenylbutanoic acid] | 32.5% | 2.61 |
| CC(=O)NCC(=O)NCC(=O)N[C@H](Cc1ccccc1)[C@H](O)C(=O)[O-].[Na+] [Compound 13, (2S,3R)-3-N--(N'--acetylglycylglycyl)amino-2-hydroxy-4-phenylbutanoic acid sodium salt] | 33.1% |  |
| N[C@H](Cc1ccccc1)C(=O)N[C@H](Cc1ccc(O)cc1)[C@H](O)C(=O)O [Compound 17, (2S,3R)-3-N--(R)-phenylalanylamino-2-hydroxy-4-p-hydroxy-phenylbutanoic acid] | 32.1% | 3.89 |
| CC(C)C[C@@H](N)C(=O)N[C@H](Cc1ccccc1)[C@@H](O)C(=O)O [Compound 18, (2R,3R)-3-N--(R)-leucylamino-2-hydroxy-4-phenylbutanoic acid] | 23.4% | 2.58 |
| CC(C)C[C@@H](N)C(=O)N[C@H](Cc1ccccc1)[C@H](O)C(=O)O [Compound 9, (2S,3R)-3-N--(R)-leucylamino-2-hydroxy-4-phenylbutanoic acid] | 26.3% | 2.61 |
| COC(=O)[C@@H](O)[C@@H](Cc1ccccc1)NC(=O)CNC(=O)CN.Cl [Compound 5, (2S,3R)-3-N--glycylglycylamino-2-hydroxy-4-phenylbutanoic acid methyl ester hydrochloride] | 19.0% | 2.82 |
| C[C@@H](N)C(=O)N[C@H](Cc1ccccc1)[C@H](O)C(=O)O [Compound 14, (2S,3R)-3-N--(R)-alanylamino-2-hydroxy-4-phenylbutanoic acid] | 16.8% | 2.67 |
| CC(C)C[C@H](NC(=O)[C@@H](O)[C@H](N)Cc1ccccc1)C(=O)O [Bestatin, (2S,3R)-3-amino-2-hydroxy-4-phenylbutanoyl-(S)-leucine, reference compound] | 19.9% | 3.23 |
| CC(C)C[C@H](N)C(=O)N[C@H](Cc1ccccc1)[C@H](O)C(=O)O [Compound 8, (2S,3R)-3-N--(S)--leucylamino-2-hydroxy-4-phenylbutanoic acid] | 22.5% | 2.59 |
| NCC(=O)NCC(=O)N[C@H](Cc1ccccc1)[C@H](O)C(=O)O [Compound 4, (2S,3R)-3-N--glycylglycylamino-2-hydroxy-4-phenylbutanoic acid] | 10.6% | 3.62 |
| COC(=O)[C@@H](O)[C@@H](Cc1ccccc1)NC(=O)CNC(C)=O [Compound 3, (2S,3R)-3-N--(N'--acetylglycyl)amino-2-hydroxy-4-phenylbutanoic acid methyl ester] | 22.9% | 2.26 |
